This note sets out measurements from patent US11766434B2, “Pyrimidinone derivatives as CDC7 inhibitors” (Cancer Research Technology Limited, priority 2016, dated 2023).

SMILES strings stand for the structures.

In the assay the target is Cdc7/ASK (Homo sapiens, UniProt O00311). Kind of assay: Cdc7 biochemical assay Method 1: 384 well ELISA, MCM2 whole protein substrate, Phospho MCM2 (S53) antibody. Set-up: purchased. As to conditions: ATP 2 μM, 90 minutes, read-out: Biochemical method 1 (pIC50) (converted). How it is done: This protocol describes a method for assaying Cdc7/ASK for activity. The assay is a 384 well ELISA assay, utilising a whole protein substrate (MCM2) and an antibody against Phospho MCM2 (S53). This site is thought to be specific to Cdc7/ASK phosphorylation and the assay has been validated using knockout mutants.
Cdc7/ASK, sequence (O00311 whole entry): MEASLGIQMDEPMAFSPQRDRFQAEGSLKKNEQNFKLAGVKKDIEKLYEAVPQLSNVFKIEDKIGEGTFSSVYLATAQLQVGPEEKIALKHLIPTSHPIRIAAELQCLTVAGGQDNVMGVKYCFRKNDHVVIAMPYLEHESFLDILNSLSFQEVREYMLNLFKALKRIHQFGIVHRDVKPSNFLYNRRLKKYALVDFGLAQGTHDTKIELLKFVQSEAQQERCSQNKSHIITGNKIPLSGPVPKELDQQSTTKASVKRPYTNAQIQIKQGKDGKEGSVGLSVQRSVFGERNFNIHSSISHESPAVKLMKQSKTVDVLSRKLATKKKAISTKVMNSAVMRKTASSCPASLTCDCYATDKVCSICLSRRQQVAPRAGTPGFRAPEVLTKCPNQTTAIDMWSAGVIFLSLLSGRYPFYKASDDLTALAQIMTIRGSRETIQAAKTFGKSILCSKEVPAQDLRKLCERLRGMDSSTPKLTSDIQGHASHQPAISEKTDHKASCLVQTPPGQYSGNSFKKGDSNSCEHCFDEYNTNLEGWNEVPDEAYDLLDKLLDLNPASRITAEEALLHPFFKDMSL
Cdc7/ASK, sequence (Q9UBU7 whole entry partner): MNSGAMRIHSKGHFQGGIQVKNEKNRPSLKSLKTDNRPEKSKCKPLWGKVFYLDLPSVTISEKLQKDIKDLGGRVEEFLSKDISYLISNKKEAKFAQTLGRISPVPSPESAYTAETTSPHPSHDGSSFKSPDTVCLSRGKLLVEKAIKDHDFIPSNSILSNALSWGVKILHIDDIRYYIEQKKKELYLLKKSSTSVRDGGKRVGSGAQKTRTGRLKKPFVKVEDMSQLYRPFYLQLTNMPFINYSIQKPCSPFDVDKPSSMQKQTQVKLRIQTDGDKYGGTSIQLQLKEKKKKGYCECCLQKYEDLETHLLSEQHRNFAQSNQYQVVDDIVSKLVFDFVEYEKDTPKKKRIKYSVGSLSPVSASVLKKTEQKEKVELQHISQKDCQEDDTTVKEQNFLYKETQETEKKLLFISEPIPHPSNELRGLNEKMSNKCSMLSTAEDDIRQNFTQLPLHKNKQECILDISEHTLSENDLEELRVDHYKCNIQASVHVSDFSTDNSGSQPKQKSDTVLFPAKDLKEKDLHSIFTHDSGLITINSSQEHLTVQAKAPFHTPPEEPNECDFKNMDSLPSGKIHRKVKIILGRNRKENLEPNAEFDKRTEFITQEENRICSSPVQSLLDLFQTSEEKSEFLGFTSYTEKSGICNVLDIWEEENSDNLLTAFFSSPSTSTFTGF
• TBS: 25 mM Tris pH 7.2, 150 mM NaCl. (Dilute 10× stock by 1:10). • Wash Buffer: TBS+0.05% Tween 20. (Add 100 mL 1 M Tris pH 7.2, 120 mL 5 M NaCl and 2 mL 100% Tween 20 per 4 L). • Kinase Reaction Buffer: 50 mM Tris-HCl pH 8.5, 10 mM MgCl2, 1 mM DTT. (Dilute 10× stock by 1:10 and add 100 μL 1M DTT per 100 mL prior to assay). • Diethanolamine Buffer: 1 M diethanolamine pH 9.8, 0.5 mM MgCl2. • Stop Solution: 1 M NaOH. • MCM2 was expressed and purified in-house and used in the assay at a final assay concentration of 436 ng/well. • Cdc7/ASK is purchased from commercial suppliers and used in the assay at a final assay concentration of 37.97 ng/well or 20.63 nM. • ATP used as a final assay concentration of 2 μM. • Primary Antibody: Rabbit anti-Phospho MCM2 (S53 Antibody (BL3353)), is purchased from commercial suppliers at 0.2 mg/mL and used at a final assay concentration by diluting 1:800 in TBS. • Secondary Antibody: Anti-Rabbit/AP Antibody is supplied is purchased from commercial suppliers at 1 mg/mL and used at a final assay concentration by diluting 1:2000 in TBS. • Development Reagent: Dissolve one 20 mg PNPP tablet (Sigma, product N2765, 20 mg per tablet) per 20 mL diethanolamine Buffer (or one 5 mg PNPP tablet per 5 mL diethanolamine buffer). Cover in foil and leave shaking on a roller shaker at room temperature for up to an hour to dissolve. Methods • 1. Add 20 μL 1× working stock of Substrate (MCM2) in TBS to all wells of a clear, 384 well, Nickel-chelate microplate to give a final concentration of 250 ng/well. Incubate at room temperature for at least 1 hour. Plates can be pre-coated for 1 hour and stored at 4° C. for up to 8 days. • 2. Wash with TBS+0.05% Tween 20 (80 μL x 3). • 3. Add 2 μL 10× test compounds, including the positive control, in 40% DMSO/water to ‘test’ wells. Add 2 μL 40% DMSO/water to ‘control’ and ‘blank’ wells. The final DMSO concentration will be 4%. • 4. Add 13 μL CDCl7/ASK Kinase (1.5× stock) in Kinase Reaction Buffer to ‘test’ and ‘control’ wells to give a final concentration of […]. Add 13 μL Kinase Reaction Buffer to ‘blank’ wells. • 5. Add 5 μL ATP (4× stock) in Kinase Reaction Buffer to all wells to give a final concentration of 2 μM. • 6. Incubate at room temperature for 90 minutes. • 7. Wash with TBS+0.05% Tween 20 (80 μL x 3). • 8. Add 20 μL 1× working solution of Primary Antibody in TBS to all wells. Incubate at room temperature for 30 minutes. • 9. Wash with TBS+0.05% Tween 20 (80 μL x 3). • 10. Add 20 μL 1× working solution of Secondary Antibody in TBS to all wells. Incubate at room temperature for 30 minutes. • 11. Wash with TBS+0.05% Tween 20 (80 μL x 3). • 12. Add 20 μL 1× Development Reagent to all wells. • 13. Incubate at room temperature for 2 hours. Stop the reaction by adding 20 μL Stop Solution to all wells and record Absorbance on a Pherastar plate reader.
Percentage inhibition values were calculated from absorbance values, using the no compound (DMSO) and no enzyme control values as 0% and 100% inhibition, respectively. IC50 determination was performed with ExcelFit software (IDBS) using curve fit 205. Z′ factors were determined for each plate tested and were all above 0.5.
For the compound `Cc1ncsc1-c1nc(C2CCN(C(=O)OC(C)(C)C)CC2)c(Cl)c(=O)[nH]1` [Compound 1, tert-butyl 4-[5-chloro-2-(4-methylthiazol-5-yl)-6-oxo-1H-pyrimidin-4-yl]piperidine-1-carboxylate], the IC50 is 229 nM. With `Cc1ncsc1-c1nc(C2CCOCC2)c(Br)c(=O)[nH]1` [Compound 3, 5-bromo-2-(4-methylthiazol-5-yl)-4-tetrahydropyran-4-yl-1H-pyrimidin-6-one] the figure was 57.5 nM. As for `Cc1nc(O)sc1-c1nc(C2CCOCC2)c(Cl)c(=O)[nH]1` [Compound 5, 5-chloro-2-(2-hydroxy-4-methyl-thiazol-5-yl)-4-tetrahydropyran-4-yl-1H-pyrimidin-6-one], the figure is 126 nM; as for `Cc1ncsc1-c1nc(C2CCOCC2)c(I)c(=O)[nH]1` [Compound 7, 5-Iodo-2-(4-methylthiazol-5-yl)-4-tetrahydropyran-4-yl-1H-pyrimidin-6-one], 245 nM. As for `O=c1[nH]c(-c2cncs2)nc(C2CCOCC2)c1Cl` [Compound 9, 5-chloro-4-tetrahydropyran-4-yl-2-thiazol-5-yl-1H-pyrimidin-6-one], the figure is 562 nM. `Cn1nccc1-c1nc(C2CCOCC2)c(Cl)c(=O)[nH]1` [Compound 10, 5-chloro-2-(2-methylpyrazol-3-yl)-4-tetrahydropyran-4-yl-1H-pyrimidin-6-one]: the IC50 is 93.3 nM. With `Cc1nnsc1-c1nc(C2CCOCC2)c(Cl)c(=O)[nH]1` [Compound 11, 5-chloro-2-(4-methylthiadiazol-5-yl)-4-tetrahydropyran-4-yl-1H-pyrimidin-6-one] the figure was 692 nM; with `Cc1ncsc1-c1nc(C2CCOCC2)c(C#N)c(=O)[nH]1` [Compound 18, 2-(4-methylthiazol-5-yl)-6-oxo-4-tetrahydropyran-4-yl-1H-pyrimidine-5-carbonitrile], 60.3 nM; with `Cc1ncsc1-c1nc(C2CCN(C(=O)C3CC3(F)F)CC2)c(Cl)c(=O)[nH]1` (stereo not shown) [Compound 19, 5-chloro-4-[1-(2,2-difluorocyclopropanecarbonyl)-4-piperidyl]-2-(4-methylthiazol-5-yl)-1H-pyrimidin-6-one], 40.7 nM.

`Cc1ncsc1C(=O)N1CCC(c2nc(-c3scnc3C)[nH]c(=O)c2Cl)CC1` [Compound 20, 5-chloro-4-[1-(4-methylthiazole-5-carbonyl)-4-piperidyl]-2-(4-methylthiazol-5-yl)-1H-pyrimidin-6-one]: the IC50 is 4.47 nM. As for `Cc1ncsc1-c1nc(C2CCN(C(=O)c3cscn3)CC2)c(Cl)c(=O)[nH]1` [Compound 21, 5-chloro-2-(4-methylthiazol-5-yl)-4-[1-(thiazole-4-carbonyl)-4-piperidyl]-1H-pyrimidin-6-one], the figure is 3.98 nM. With `Cc1cc(C(=O)N2CCC(c3nc(-c4scnc4C)[nH]c(=O)c3Cl)CC2)[nH]n1` [Compound 22, 5-chloro-4-[1-(3-methyl-1H-pyrazole-5-carbonyl)-4-piperidyl]-2-(4-methylthiazol-5-yl)-1H-pyrimidin-6-one] the figure was 4.37 nM. With `Cc1cc(C(=O)N2CCC(c3nc(-c4scnc4C)[nH]c(=O)c3Cl)CC2)n(C)n1` [Compound 24, 5-chloro-4-[1-(2,5-dimethylpyrazole-3-carbonyl)-4-piperidyl]-2-(4-methylthiazol-5-yl)-1H-pyrimidin-6-one] the figure was 3.98 nM.

In the case of `Cc1ncsc1-c1nc(C2CCN(C(=O)c3ccnnc3)CC2)c(Cl)c(=O)[nH]1` [Compound 26, 5-chloro-2-(4-methylthiazol-5-yl)-4-[1-(pyridazine-4-carbonyl)-4-piperidyl]-1H-pyrimidin-6-one], the IC50 was 1.66 nM. With `Cc1ncsc1-c1nc(C2CCN(CC(C)C)CC2)c(Cl)c(=O)[nH]1` [Compound 27, 5-chloro-4-(1-isobutyl-4-piperidyl)-2-(4-methylthiazol-5-yl)-1H-pyrimidin-6-one] the figure was 56.2 nM. As for `Cc1ncsc1-c1nc(N2CCCNC(=O)C2)c(Cl)c(=O)[nH]1` [Compound 34, 4-[5-chloro-2-(4-methylthiazol-5-yl)-6-oxo-1H-pyrimidin-4-yl]-1,4-diazepan-2-one], the figure is 158 nM.
